Test system: HIV-1 RT-associated RNase H activity, V108A RT
Assay: RNase H activity assay, V108A RT
Assay type: biochemical, HIV-1 group M subtype B
Settings: V108A RT
Procedure: HIV RT-associated RNase H activity was measured as described in 100 μL reaction volume containing 50 mM Tris-HCl buffer pH 7.8, 6 mM MgCl2, 1 mM dithiothreitol (DTT), 80 mM KCl, 0.25 μM hybrid RNA/DNA 5'-GAUCUGAGCCUGGGAGCU-Fluorescin-3' (HPLC, dry, QC: Mass Check) (available from Metabion) 5'-Dabcyl-AGCTCCCAGGCTCAGATC-3'(HPLC, dry, QC: Mass Check), increasing concentrations of inhibitors, whose dilution were made in water, and different amount of enzymes according to a linear range of dose-response curve: 20 ng of WT RT; 60 ng K103N RT; 37.5 ng V106A RT; 75 ng V108A RT; 5 ng Y181C RT; 50 ng Y188A RT; 30 ng Y188L RT; 100 ng E224A RT; 37.5 ng P225A RT; 20 ng P226A RT; 18 ng F227A RT; 30 ng L228A RT; 30 ng W229A RT; 10 ng M230A RT; 30 ng G231A RT; 62.5 ng N474A RT; 1 μg Y501A RT; 100 ng A502F RT; 37.5 ng A508V RT; 38 ng HIV-1 group O RT. The reaction mixture was incubated for 1 h at 37°C, stopped by addition of EDTA and products were measured with a multilabel counter plate reader Victor 3 (Perkin Elmer model 1420–051) equipped with filters for 490/528 nm (excitation/emission wavelength)

Question: For `CC(C)c1ccc(O)c(=O)c(O)c1` [BTP, β-thujaplicinol, reference compound], which “Fold of increase of RNase H IC50 with respect to wt RT” value is on record?
Answer: The value was 0.9.

From paper PMC4723341, “Ribonuclease H/DNA Polymerase HIV-1 Reverse Transcriptase Dual Inhibitor: Mechanistic Studies on the Allosteric Mode of Action of Isatin-Based Compound RMNC6” (PLoS ONE, 2016)
